In paper PMC12408683 (Archives of Toxicology, 2025):
pEC50: −log10 of the molar value. Read-outs that look alike come from different tables or passages of the source.

Key:
HepG2 cells [1] = test: DNA adduct quantification by UHPLC-MS/MS in HepG2 cells; format: cell-based, human; conditions: for E3′-N^2-dG adducts / E3′-N^6-dA adducts: 24 h
Description: (§1) To this end, 6 × 10^6 cells were seeded per 10 cm dish and allowed to attach overnight. […] The pellets were washed with phosphate-buffered saline (PBS) and stored at – 20 °C until further use. DNA was isolated as described previously (Carlsson et al. [2022]) and DNA concentration as well as purity were determined with the NanoDrop ND1000 photometer (Thermo Scientific, Waltham MA, USA). As a next step, 30 µg DNA of each sample was digested overnight at 37 °C with micrococcal nuclease (Worthington, Lakewood NJ, USA) and phosphodiesterase II (Worthington, Lakewood NJ, USA) as reported (Carlsson et al. [2022]). Afterwards ^15N-E3′-N^2-dG (2 nM), ^15N-E3′-N^6-dA (0.5 nM) as well as ^15N-dG (20 µM) (Silantes, München, Germany) were added as internal standards. The isotope-labelled internal DNA adduct standards and external DNA adduct standard were synthesised as previously described (Schumacher et al. [2013]). Subsequently, the samples were incubated overnight at 37 °C with alkaline phosphatase (Sigma-Aldrich, St. Louis MO, USA), followed by precipitation of remaining proteins with ethanol and centrifugation at 20,800 g. The supernatant was narrowed down in a vacuum centrifuge (Eppendorf concentrator plus, Eppendorf, Hamburg, Germany) at 60 °C and 1400 g for 2–4 h and the resulting pellet was dissolved in 75% methanol. After another centrifugation step, the solution was transferred into glass vials with inserts.
(§2) The DNA adducts were measured via UHPLC–MS/MS with a multiple reaction method (MRM) using a UHPLC system (Agilent 1290 infinity; Agilent Technologies, Santa Clara CA, USA) consisting of a binary pump (G4220A), an autosampler (G4226A) and a column oven (G1316C). The eluent consisted of 0.1% acetic acid and UHPLC grade methanol. Injection volume was 5 μL and the flow rate was 0.2 mL/min. The gradients are shown in the supporting information, Fig. 2A, B. As a separation column, a Waters XTerraMS C18 2.5 µm (2.1 × 50 mm) was used at 35 °C. The UHPLC was coupled to the Sciex QTrap 5500 MS using a declustering potential of 91 V, an entrance potential of 10 V, a collision energy of 33 V, a collision cell entrance potential of 10 V, curtain gas of 25 psi, an ion spray voltage of 5500 V, a temperature of 550 °C, and an ion source gas of 35 psi as specific mass spectrometry parameters. Measurement was performed with an electron spray ionisation in positive mode using MRM to quantify both adducts. For further quantification of the adduct levels, a standard curve of both adducts was carried along ranging from 60 to 100,000 pM, also containing isotope-labelled standards for reference. Furthermore, the dG-content of each sample was determined via LC–MS/MS with stable isotope dilution analysis to normalise the adduct levels to the overall nucleoside content (Carlsson et al. [2022]; Stegmüller et al. [2018]). The limit of detection (LOD) and the limit of quantification (LOQ) for E3′-N^2-dG and E3′-N^6-dA are provided in supplementary Table S1. The specific compound parameters for both methods are provided in supplementary Table S2.
(§3) As benchmark response (BMR) for all concentration–response curves (adducts, micronuclei), a 2.0-fold increase vs. solvent control was used (BMC100, critical effect size = 1). The determined BMC100 and the corresponding upper and lower boundary (BMCU and BMCL, respectively) of the 90% confidence interval (CI) were used for potency comparison.

HepG2 cells [2] = test: Resazurin reduction assay (cytotoxicity) in HepG2 cells; conditions: for pEC50: read-out: EC50 (cell viability)
HepG2-CYP1A2 cells [3] = test: DNA adduct quantification by UHPLC-MS/MS in HepG2-CYP1A2 cells; format: cell-based, human
Description: as §1, §2, §3

HepG2-CYP1A2 cells [4] = test: Western blot of γH2AX and p53 in HepG2-CYP1A2 cells; conditions: 24 h
Description: γH2AX and p53 levels were assessed by SDS-PAGE and western blotting as reported (Fahrer et al. [2013]). To this end, 5 × 10^5 cells were seeded in 3.5-cm dishes to adhere overnight. […] Proteins were separated by SDS-PAGE followed by the transfer onto a nitrocellulose membrane using the wet blot method. The successful transfer was confirmed by Ponceau S staining of the membrane before blocking with 5% non-fat dry milk in Tris-buffered saline with Tween-20 (MP-TBS-T). Subsequently, the membrane was incubated with the respective primary antibodies overnight at 4 °C. The membranes were washed three times for 5 min with TBS-T before incubating with the respective secondary antibody coupled with horseradish peroxidase. The detection was carried out using the Western Lightning Plus-ECL reagent (Perkin Elmer, Waltham MA, USA) with the c300 chemiluminescence imager (Azure Biosystems, Dublin CA, USA). The used primary and secondary antibodies are detailed in supplementary Table S3.

HepaRG cells = tested on: HepaRG cells; design: method as in Le Hegarat et al. 2014; conditions: ref Le Hegarat et al. 2014; cited from earlier work
mice = tested on: mice; design: method as in Suzuki et al. 2012b; conditions: up to 300 mg/kg bw and day over 13 weeks; ref Suzuki et al. 2012b; cited from earlier work
female gpt delta mice = tested on: female gpt delta mice; design: method as in Suzuki et al. 2012b; conditions: ref Suzuki et al. 2012b; cited from earlier work
[5] = design: method as in Yang et al. 2021; conditions: PBPK modelling, dietary uptake 0.01 mg/kg bw and day; ref Yang et al. 2021; cited from earlier work
[6] = endpoint E3′-N^2-dG, BMR 2.0-fold increase, 90% CI
[7] = endpoint E3′-N^2-dG, BMR 2.0-fold increase, 90% CI, PROAST

Compound: C=CC(O)c1ccc(OC)cc1 (stereo not shown) [1′OH-ES, 1′-hydroxyestragole]
- E3′-N^2-dG adducts (HepG2 cells [1]; 0.1 µM 1′OH-ES): 24 adducts/10^8 ncs
- E3′-N^2-dG adducts (HepG2 cells [1]; 25 µM 1′OH-ES): 2237 adducts/10^8 ncs
- E3′-N^6-dA adducts (HepG2 cells [1]; 25 µM 1′OH-ES): 64 adducts/10^8 ncs
- E3′-N^2-dG adducts (HepG2 cells [1]; 35 µM 1′OH-ES): 6881 adducts/10^8 ncs
- E3′-N^6-dA adducts (HepG2 cells [1]; 35 µM 1′OH-ES): 139 adducts/10^8 ncs
- E3′-N^2-dG levels vs equimolar ES concentrations (HepG2 cells [1]; 1′OH-ES in HepG2 vs ES in HepG2-CYP1A2, 24 h): 10–50 fold
- BMC100 (HepG2 cells [1]; endpoint E3′-N^2-dG, BMR 2.0-fold increase): 2.65 µM
- BMCL (HepG2 cells [1]; [6]): 0.75 µM
- BMCU (HepG2 cells [1]; [6]): 5.65 µM
- genotoxic and mutagenic potency compared to the parent compound ES (HepG2 cells [1]; from BMC modelling): 20–30 fold
- E3′-N^2-dG adduct level corresponding to significant cytotoxicity (HepG2 cells [1]; highest 1′OH-ES concentration): 6881 adducts/10^8 ncs
- E3′-N^2-dG adduct level at which a twofold MN increase was observed (HepG2 cells [1]; molecular dosimetry, flow cytometry and CBMN): 420–2237 adducts/10^8 ncs
- concentrations reaching the adduct level required to impair viability (HepG2 cells [1]; more than 6000 E3′-N^2-dG adducts/10^8 ncs): ≥ 35 µM
- E3′-N^2-dG adducts required to impair viability and trigger cell death (HepG2 cells [1]; not reached by ES): more than 6000 adducts/10^8 ncs
- cell viability (HepG2 cells [2]; 50 µM 1′OH-ES, 24 h treatment + 72 h recovery): above 70%
- pEC50 (HepG2 cells [2]; 24 h): 4.37
- pEC50 (HepG2 cells [2]; 72 h): 4.57

Compound: C=CCc1ccc(OC)cc1 [ES, estragole]
- E3′-N^2-dG adducts, change vs maximum level (HepG2-CYP1A2 cells [3]; 2 mM ES (highest treatment group), 24 h): moderate decline
- E3′-N^6-dA adduct (minor DNA adduct) (HepG2-CYP1A2 cells [3]; any tested ES concentration (up to 2 mM), 24 h): neither quantifiable nor detectable
- BMCL (HepG2-CYP1A2 cells [3]; [7]): 18.9 µM
- BMCU (HepG2-CYP1A2 cells [3]; [7]): 104 µM
- BMC100 (HepG2-CYP1A2 cells [3]; endpoint E3′-N^2-dG, BMR 2.0-fold increase, PROAST): 63.3 µM
- γH2AX induction vs. control (HepG2-CYP1A2 cells [4]; 250 µM ES): threefold
- p53 accumulation (HepG2-CYP1A2 cells [4]): No p53 accumulation
- lowest effect concentration for MN formation (HepaRG cells): 1 mM
- clastogenicity (mice): clastogenicity was not detected
- dose with significant increase in mutation frequency (female gpt delta mice): 75 mg/kg bw
- predicted ES concentration in liver venous blood [5]: 0.01 µM
